Consider six molecules from ChEMBL document CHEMBL4840378 (J Med Chem, 2021).

Series [1] in a line: Clearance in rat at 2 mg/kg. The following applies: in vivo. The class given is ADME, organism-based.
A short description of series [2]: AUCinf in rat at 10 mg/kg, po. The class given is ADME, organism-based. Also noted: route oral, time infinity, dose 10 mg/kg. The following applies: in vivo.
Series [3] can be described thus: Metabolic stability in rat liver S9 fraction assessed as compound remaining measured after 1 hr. The class given is ADME, subcellular. The following applies: read-out: Stability.
A short description of series [4]: Metabolic stability in human liver S9 fraction assessed as compound remaining measured after 1 hr. The class given is ADME, subcellular. The following applies: read-out: Stability.

As usually defined, the clearance is the rate of elimination divided by the concentration. A high value points to efficient removal. For orientation: AUC(0-inf) means total exposure, with the tail of the curve extrapolated. The low end stands for low exposure, the high end for high exposure.

With `C[C@@H]1CC[C@@H](Nc2nc(NC(C)(C)C)ncc2C(N)=O)C[C@H]1O` [CC-90001], in series [1], the clearance worked out at 11 mL/min/kg. Further, the area under the curve AUC(0-inf) in series [2] amounted to 35.5 µM·h.
As to `NC(=O)c1cnc(NC23CC(C2)C3)nc1N[C@@H]1CCC[C@H](O)C1`, the remaining at 1 h in series [3] is 75%; in series [4], 96%. This molecule came in with an AUC(0-inf) in series [2] of 2.25 µM·h.
On to `NC(=O)c1cnc(NC2CCCCC2)nc1N[C@@H]1CCC[C@H](O)C1`, for which the remaining at 1 h was determined as 1% in series [3] and 77% in series [4].
Take `CC(C)(C)Nc1ncc(C(N)=O)c(N[C@@H]2CCC[C@H](O)C2)n1`: the remaining at 1 h was found to be 98% in series [3] and 93% in series [4]. The clearance in series [1] worked out at 78 mL/min/kg. For the same molecule, in series [2], the AUC(0-inf) worked out at 10.8 µM·h.
With `CO[C@H]1CC[C@H](Nc2ncc(C(N)=O)c(N[C@@H]3CCCC(F)(F)C3)n2)CC1` (mixture of isomers), the remaining at 1 h in series [3] is 1%; in series [4] it was 61%.
For `CO[C@H]1CCC[C@@H](Nc2nc(N[C@H]3CC[C@H](OC)CC3)ncc2C(N)=O)C1` the same measures were 47% and 91%.
